# Publication PMC8626775, “Anti-schistosomal activities of quinoxaline-containing compounds: From hit identification to lead optimisation” (European Journal of Medicinal Chemistry, 2021)
# Where two headings read alike, the source gives them in different places.
# Experiments:
# S. mansoni schistosomula = S. mansoni schistosomula high-throughput phenotype and motility screen (Roboworm), 72 h; assay type: cell-based, Schistosoma mansoni; conditions: for EC50: Schistosoma mansoni; for Effect on phenotype and motility of S. mansoni schistosomula: primary tested concentrations 10 and 50 μM
# Method: Cercariae derived from the NMRI ([…]) Puerto Rican strain (PR-1) of S. mansoni were shed from two Biomphalaria glabrata strains, the NMRI albino and pigmented outbred strains, under intensified lighting conditions (1 h of incubation at 26 °C). Cercariae were then mechanically transformed into schistosomula as previously described.
# High-throughput screening (HTS) of selected compounds was conducted as previously described. Briefly, newly transformed schistosomula were distributed in a 384-well tissue culture plate (PerkinElmer, cat 6007460, seeding density of 120 parasites/well). Each compound (at a single concentration or two-fold titrations) was transferred into individual wells alongside the positive and negative controls (AUR at 10 μM final concentration in 0.625% DMSO and 0.625% DMSO, respectively). Schistosomula/compound co-cultures were then incubated at 37 °C for 72 h in a humidified atmosphere containing 5% CO2. Following the co-culture period, automatic assessment of compound-induced schistosomula motility and phenotypic changes were conducted with the high-content imaging platform Roboworm using the image analysis model previously described by Paveley et al..
# S. mansoni adult worms = experiment: S. mansoni adult worm motility screen (WormassayGP2), 72 h; assay type: cell-based, Schistosoma mansoni; conditions: Schistosoma mansoni
# Excerpt: Mice (Mus musculus HsdOLa:TO - Tuck Ordinary; Envigo, UK) were used for the mammalian-specific propagation of the S. mansoni life cycle. Experimental animals were infected with 4000 or 180 S. mansoni cercariae/mouse and perfused three- or seven-weeks post-infection to obtain S. mansoni juvenile or adult worms, respectively. Preparation steps following perfusion have been described previously. Briefly, the parasite material was washed three times with pre-warmed adult worm media (DMEM (Gibco, Paisley, UK) supplemented with 10% (v/v) Fetal Calf Serum (FCS, Gibco, Paisley, UK), 1% (v/v) L-glutamine (Gibco, Paisley, UK) and an antibiotic mixture (150 Units/ml penicillin and 150 μg/ml streptomycin; Gibco, UK)) to remove residual host contamination and incubated in a humidified environment containing 5% CO2 at 37 °C for at least 1 h.
# For the evaluation of anti-schistosomal activity on the adult stage of the parasite, 7-wk old worms were transferred into 48 well tissue culture plates (1–3 worm pairs/well, in duplicate). […] DMSO (0.5%) and praziquantel (10 μM in 0.5% DMSO) were also included as negative and positive control treatments. Treated adult worms were incubated for 72 h in a humidified environment containing 5% CO2 at 37 °C. Parasite motility after compound treatment was assessed by a digital image processing-based system (WormassayGP2), modified after Wormassay. Following compound-parasite co-incubation, eggs were collected, fixed in formalin (10% v/v formaldehyde) and enumerated aiming to collect further information on any compound-induced effects on parasite fecundity and IVLE production.
# [1] = 72 h, Table 2, motility, 72 h, three replicate titrations (0.313–10 μM), read-out: Activity on schistosomula (EC50, μM - 72 h) M
# [2] = 72 h, Table 2, phenotype, 72 h, three replicate titrations (0.313–10 μM), read-out: Activity on schistosomula (EC50, μM - 72 h) P
# [3] = Table 3, read-out: Anti-schistosomal activity EC50 (μM) Schistosomula Motility
# [4] = Table 3, read-out: Anti-schistosomal activity EC50 (μM) Schistosomula Phenotype
# [5] = 72 h, Table 1, 72 h, two dose response titrations (0.313–10 μM), 95% CI in brackets, read-out: Activity on schistosomula (EC50, μM - 72 h) Motility
# [6] = 72 h, Table 1, 72 h, two dose response titrations (0.313–10 μM), 95% CI in brackets, read-out: Activity on schistosomula (EC50, μM - 72 h) Phenotype
# [7] = Fig. S3, average schistosomula EC50, read-out: EC50 (Fig. S3, anti-schistosomula activity)
# [8] = 72 h, Table S7, motility, 95% CI in brackets, read-out: Activity on schistosomula (EC50, µM - 72 h) (95% CI) M
# [9] = 72 h, Table S7, phenotype, 95% CI in brackets, read-out: Activity on schistosomula (EC50, µM - 72 h) (95% CI) P
# [10] = 72 h, Table 1, mean of phenotype and motility EC50, 72 h, read-out: Activity on schistosomula (EC50, μM - 72 h) Average
EC50 (S. mansoni schistosomula; [5]) [µM],EC50 (S. mansoni schistosomula; [6]) [µM],EC50 (S. mansoni schistosomula; [7]) [µM],SMILES,Effect on phenotype and motility of S. mansoni schistosomula (S. mansoni schistosomula; 72 h),further results
–,–,–,"O=[N+]([O-])c1ccc2nc(NCCc3ccccc3)c(NCCc3ccccc3)nc2c1 [Compound 37, 6-nitro-N2, N3-diphenethylquinoxaline-2,3-diamine]",–,"EC50 (S. mansoni schistosomula; 72 h, Table 2, average of phenotype and motility EC50, 72 h, read-out: Activity on schistosomula (EC50, μM - 72 h) Average): 1.84 µM; EC50 (S. mansoni schistosomula; [1]): 1.47 µM; EC50 (S. mansoni schistosomula; [2]): 2.2 µM; EC50 (S. mansoni schistosomula; [3]): 1.47 µM; EC50 (S. mansoni schistosomula; [4]): 2.2 µM; EC50 (S. mansoni adult worms; Table 3, read-out: Anti-schistosomal activity EC50 (μM) Adult Motility): 0.195 µM; EC50 (S. mansoni adult worms; Table 2, 72 h, titrations 0.0095–5 μM, WormassayGP2, read-out: Activity on adult worms (EC50, μM - 72 h) Motility): 0.195 µM"
> 10,> 10,> 10,FC(F)(F)c1cccc(Oc2nc3ccccc3nc2Oc2cccc(C(F)(F)F)c2)c1 [Compound 12],weak effect,–
> 50,> 50,> 50,Cc1ccc(Sc2nc3ccccc3nc2Sc2ccc(C)cc2)cc1 [Compound 14],did not have any effect,–
–,–,–,"O=C(Nc1ccc2nc(Nc3ccc(Cl)c(Cl)c3)c(Nc3ccc(Cl)c(Cl)c3)nc2c1)c1cccc(C(F)(F)F)c1 [Compound 22g, N-(2,3-bis((3,4-dichlorophenyl)amino)quinoxalin-6-yl)-3-(trifluoromethyl)benzamide]",–,"EC50 (S. mansoni schistosomula; [1]): > 50 µM; EC50 (S. mansoni schistosomula; [2]): > 50 µM; EC50 (S. mansoni schistosomula; [8]): > 50 µM; EC50 (S. mansoni schistosomula; [9]): > 50 µM; EC50 (S. mansoni schistosomula; Table 5, Series C, read-out: Anti-schistosomal activity EC50 Schistosomula (μM) Motility): > 50 µM; EC50 (S. mansoni schistosomula; Table 5, Series C, read-out: Anti-schistosomal activity EC50 Schistosomula (μM) Phenotype): > 50 µM"
> 50,> 50,> 50,FC(F)(F)c1cccc(/N=c2\[nH]c3ccccc3s\c2=N\c2cccc(C(F)(F)F)c2)c1 [Compound 4],did not have any effect,–
5.83,5.12,–,CCOC(=O)c1ccc(Nc2nc3ccccc3nc2Nc2ccc(C(=O)OCC)cc2)cc1 [Compound 10],–,Activity on schistosomula in the primary screen at 10 μM (S. mansoni schistosomula; 72 h): retained activity; EC50 (S. mansoni schistosomula; [10]): 5.47 µM
> 10,> 10,–,OCc1cccc(N=c2[nH]c3ccccc3[nH]c2=Nc2cccc(CO)c2)c1 [Compound 7],weak effect,–
> 10,> 10,–,Cc1ccc2[nH]c(=Nc3ccccc3C)c(=Nc3ccccc3C)[nH]c2c1 [Compound 5],weak effect,–
2.45,2.88,–,Cc1ccc(Nc2nc3ccccc3nc2Nc2ccc(C)c(Cl)c2)cc1Cl [Compound 17],–,"Activity on schistosomula in the primary screen at 10 μM (S. mansoni schistosomula; 72 h): retained activity; EC50 (S. mansoni schistosomula; [10]): 2.66 µM; EC50 (S. mansoni schistosomula; 72 h, read-out: EC50 on schistosomula (bounds and ranges given)): 1 to 2 µM"
> 10,> 10,> 10,COc1ccc2nc(Nc3ccccc3)c(Nc3ccccc3)nc2c1 [Compound 6],weak effect,–
> 10,> 10,–,c1ccc(-c2nc3ccccc3nc2-c2ccccc2)cc1 [Compound 18],weak effect,–
> 50,> 50,> 50,COc1ccc(OC)c(Nc2nc3ccccc3nc2Nc2cc(OC)ccc2OC)c1 [Compound 8],did not have any effect,–
–,–,–,"O=[N+]([O-])c1ccc2nc(Cl)c(Cl)nc2c1 [2,3-dichloro-6-nitroquinoxaline]",–,EC50 (S. mansoni schistosomula; [1]): > 10 µM; EC50 (S. mansoni schistosomula; [2]): > 10 µM; EC50 (S. mansoni schistosomula; [8]): > 10 µM; EC50 (S. mansoni schistosomula; [9]): > 10 µM; EC50 (S. mansoni schistosomula; [3]): > 10 µM; EC50 (S. mansoni schistosomula; [4]): > 10 µM
